Measured values published in the NIST ThermoML archive (doi:10.1021/je800110r).
“And” between values parts separate entries of the source, which are not always exact repeats. Equal entries are not always repeated.

Conditions: Liquid, Vibrating tube method

CCCCCCCCCC [decane]
Conditions	mass density
313.16 K, 749 kPa	715.1 kg/m3
313.16 K, 764 kPa	715.3 kg/m3
313.16 K, 784 kPa	715.3 kg/m3
313.16 K, 800 kPa	715.3 kg/m3
313.16 K, 813 kPa	715.2 kg/m3
313.16 K, 837 kPa	715.4 kg/m3
313.16 K, 852 kPa	715.2 kg/m3
313.16 K, 870 kPa	715.4 kg/m3
313.16 K, 891 kPa	715.4 kg/m3
313.16 K, 916 kPa	715.3 kg/m3
313.16 K, 938 kPa	715.3 kg/m3
313.16 K, 958 kPa	715.5 kg/m3
313.16 K, 978 kPa	715.4 kg/m3
323.14 K, 3098 kPa	709.7 kg/m3
323.14 K, 3118 kPa	709.8 kg/m3
323.14 K, 3138 kPa	709.6 kg/m3
323.14 K, 3156 kPa	709.6 kg/m3
323.14 K, 3176 kPa	709.7 kg/m3
323.14 K, 3200 kPa	709.7 kg/m3
323.14 K, 3221 kPa	709.8 kg/m3
323.14 K, 3243 kPa	709.8 kg/m3
323.14 K, 3271 kPa	709.9 kg/m3
323.14 K, 3297 kPa	709.9 kg/m3
323.14 K, 3322 kPa	709.9 kg/m3
323.14 K, 3345 kPa	709.8 kg/m3
323.14 K, 3372 kPa	709.8 kg/m3
323.14 K, 3400 kPa	710 kg/m3
323.14 K, 3430 kPa	709.9 kg/m3
323.14 K, 3451 kPa	710 kg/m3
323.14 K, 3477 kPa	710 kg/m3
323.14 K, 3502 kPa	710.1 kg/m3
323.14 K, 3524 kPa	710.2 kg/m3
323.14 K, 3549 kPa	710.1 kg/m3
323.14 K, 3571 kPa	710.1 kg/m3
323.14 K, 3597 kPa	710.2 kg/m3
323.14 K, 3614 kPa	710.1 kg/m3
323.14 K, 3637 kPa	710.2 kg/m3
323.14 K, 3661 kPa	710.2 kg/m3
323.14 K, 3681 kPa	710.1 kg/m3
323.14 K, 3715 kPa	710.2 kg/m3
323.14 K, 3736 kPa	710.3 kg/m3
323.14 K, 3761 kPa	710.4 kg/m3
323.14 K, 3794 kPa	710.3 kg/m3
323.14 K, 3819 kPa	710.3 kg/m3
323.14 K, 3849 kPa	710.3 kg/m3
323.14 K, 3879 kPa	710.4 kg/m3
323.14 K, 3911 kPa	710.4 kg/m3
323.14 K, 3939 kPa	710.5 kg/m3
323.14 K, 3959 kPa	710.5 kg/m3
323.14 K, 3978 kPa	710.4 kg/m3
323.14 K, 4004 kPa	710.5 kg/m3
323.14 K, 4033 kPa	710.5 kg/m3
323.14 K, 4053 kPa	710.5 kg/m3
323.14 K, 4078 kPa	710.6 kg/m3
323.14 K, 4103 kPa	710.7 kg/m3
323.14 K, 4122 kPa	710.7 kg/m3
323.14 K, 4144 kPa	710.6 kg/m3
323.14 K, 4164 kPa	710.6 kg/m3
323.14 K, 4191 kPa	710.6 kg/m3
323.14 K, 4213 kPa	710.8 kg/m3
323.14 K, 4230 kPa	710.8 kg/m3
323.14 K, 4248 kPa	710.7 kg/m3
323.14 K, 4405 kPa	710.9 kg/m3
323.14 K, 4447 kPa	710.9 kg/m3
323.14 K, 4462 kPa	710.9 kg/m3
323.14 K, 4506 kPa	711 kg/m3
323.14 K, 4528 kPa	711 kg/m3
323.14 K, 4550 kPa	711 kg/m3
323.14 K, 4566 kPa	711 kg/m3
323.14 K, 4587 kPa	711 kg/m3
323.14 K, 4704 kPa	711.1 kg/m3
323.14 K, 4721 kPa	711.2 kg/m3
323.14 K, 4739 kPa	711.2 kg/m3
323.14 K, 4770 kPa	711.2 kg/m3
323.14 K, 4793 kPa	711.3 kg/m3
323.14 K, 4804 kPa	711.2 kg/m3
323.14 K, 4818 kPa	711.3 kg/m3
323.14 K, 4838 kPa	711.3 kg/m3
323.14 K, 4970 kPa	711.3 kg/m3
323.14 K, 5064 kPa	711.5 kg/m3
323.14 K, 5127 kPa	711.5 kg/m3
323.14 K, 5175 kPa	711.5 kg/m3
323.14 K, 5178 kPa	711.6 kg/m3
323.14 K, 5183 kPa	711.6 kg/m3
323.14 K, 5184 kPa	711.5 kg/m3
323.14 K, 5187 kPa	711.6 kg/m3
323.14 K, 5189 kPa	711.6 kg/m3
323.14 K, 5191 kPa	711.6 kg/m3
323.14 K, 5192 kPa	711.5 kg/m3 and 711.6 kg/m3
323.14 K, 5193 kPa	711.5 kg/m3
323.14 K, 5216 kPa	711.7 kg/m3
323.14 K, 5238 kPa	711.6 kg/m3
323.14 K, 5256 kPa	711.7 kg/m3
323.14 K, 5276 kPa	711.6 kg/m3
323.14 K, 5291 kPa	711.7 kg/m3
323.14 K, 5312 kPa	711.6 kg/m3
323.14 K, 5335 kPa	711.7 kg/m3
323.14 K, 5353 kPa	711.8 kg/m3
323.14 K, 5375 kPa	711.7 kg/m3
323.14 K, 5406 kPa	711.8 kg/m3
323.14 K, 5428 kPa	711.7 kg/m3
323.14 K, 5450 kPa	711.7 kg/m3
323.14 K, 5468 kPa	711.9 kg/m3
323.14 K, 5487 kPa	711.9 kg/m3
323.14 K, 5506 kPa	711.8 kg/m3
323.14 K, 5535 kPa	711.9 kg/m3
323.14 K, 5551 kPa	711.8 kg/m3
323.14 K, 5575 kPa	712 kg/m3
323.14 K, 5594 kPa	711.9 kg/m3
323.14 K, 5611 kPa	712 kg/m3
323.14 K, 5631 kPa	712 kg/m3
323.14 K, 5670 kPa	712 kg/m3
323.14 K, 5697 kPa	712.1 kg/m3
323.14 K, 5721 kPa	712.1 kg/m3
323.14 K, 5738 kPa	712.1 kg/m3
323.14 K, 5756 kPa	712 kg/m3
323.14 K, 5770 kPa	712 kg/m3
323.14 K, 5788 kPa	712 kg/m3
323.14 K, 5909 kPa	712.2 kg/m3
323.14 K, 5924 kPa	712.2 kg/m3
323.14 K, 5940 kPa	712.3 kg/m3
323.14 K, 5955 kPa	712.2 kg/m3
323.14 K, 5968 kPa	712.3 kg/m3
323.14 K, 5986 kPa	712.3 kg/m3
323.14 K, 6004 kPa	712.2 kg/m3
323.14 K, 6022 kPa	712.4 kg/m3
323.14 K, 6037 kPa	712.3 kg/m3
323.14 K, 6056 kPa	712.3 kg/m3
323.14 K, 6076 kPa	712.5 kg/m3
323.14 K, 6089 kPa	712.4 kg/m3
323.14 K, 6105 kPa	712.3 kg/m3
323.14 K, 6124 kPa	712.5 kg/m3
323.14 K, 6144 kPa	712.5 kg/m3
323.14 K, 6167 kPa	712.5 kg/m3
323.14 K, 6179 kPa	712.3 kg/m3
323.14 K, 6202 kPa	712.5 kg/m3
323.14 K, 6217 kPa	712.4 kg/m3
